Laboratory results: US6706754B2, “Reversed amidines and methods of using for treating, preventing, or inhibiting leishmaniasis” (The United States of America as represented by the …, priority 2000, dated 2004)

Assays:
J774.G8 macrophages = experiment: Macrophage toxicity assay (sulforhodamine B); assay type: cell-based, mouse; conditions: for IC50 (macrophage toxicity): 72 hours, 37° C., macrophage growth inhibited by 50%; for toxicity to the macrophage (in words): in vitro
Protocol: The toxicity of the candidate compounds on J774.G8 macrophages was measured using a sulforhodamine B (Molecular Probes, Eugene, Oreg.) based dye assay.
Specifically, a confluent culture of macrophages in a T75 culture flask was harvested by replacing the growth medium (DMEM supplemented with 10% heat inactivated fetal calf serum, 50 units/ml penicillin, and 50 μg/ml streptomycin) with 25 ml of fresh medium and scraping the cells from the bottom of the culture flask. Cell clumps were broken up by gentle pipetting and the cell suspension was transferred to a 50 ml conical centrifuge tube. The cells were then pelleted by centrifugation at 1,000 rpm at 4° C. for 5 minutes. The supernatant was then removed and the cells were resuspended in 15 ml DMEM.
After counting an aliquot of the cell suspension, the macrophages were then diluted to about 1×10^5 cells/ml in DMEM and 180 μl was added to each well of a 96 well tissue culture plate Then 20 μl serial dilutions of a given candidate compound was added. The plate was then placed in a 37° C. humidified 5% CO2 incubator and incubated for 72 hours. Then 50 μl of 50% TCA was added to each well to fix the proteins. The plate was then incubated for at least 1 hour at 4° C.
The liquid contents of the wells were discarded and the wells were washed five times with 200 μl of distilled water. After the final wash the plate was allowed to air dry for 20 minutes. 100 μl of the sulforhodamine B dye (0.4% dye in 1% acetic acid) was added. The plate was then incubated at room temperature for 20 minutes. After discarding the dye solution, the wells were washed five times with 200 μl of 1% acetic acid and then allowed to air dry for 20 minutes. At this time, 50 μl of 10 mM TRIS base was added. After a few minutes of incubation, the absorbance of each well at 490 nm was measured in a SpectraMax Pro microplate reader (Molecular Devices, Sunnyvale, Calif.).
The IC50 values for each candidate compound (the concentration of the agent that inhibited macrophage growth by 50%) were determined for the macrophages with the aid of the program SoftMax Pro (Molecular Devices, Sunnyvale, Calif.) using the following dose response equation: y=((a−d)/1+(x/c)^b)+d, where x=drug concentration; y=absorbance at 490 nm; a=upper asymptote; b=slope; c=IC50; and d=lower asymptote. FIG. 5 provides the graphical data for compound 1DWB667 as an example.

L. donovani L82 = experiment: In vivo assay, murine visceral model of leishmaniasis; set-up: species or system Leishmania donovani; conditions: Table 4; BALB/c mice; 15 μmol/kg i.v. × 5

Row | Substance | IC50 (macrophage toxicity) (J774.G8 macrophages) | toxicity to the macrophage (in words) (J774.G8 macrophages) | % inhibition ± S.E.M. (L. donovani L82)
1 | 2,5-Bis[2-methoxy-4-(2-pyridylimino)aminophenyl]furan [DB 709] | 0.199 µg/mL | toxic to the macrophage in vitro within the same range of toxicity to the amastigote within the macrophage | 
2 | 2,5-Bis[2-methyl-4-(2-pyridylimino)aminophenyl]furan [DB 702] | 2.23 µg/mL |  | 
3 | 2,5-Bis[4-(2-pyridylimino)aminophenyl]furan [1DWB 667] | 4.28 µg/mL |  | 
4 | 2,5-Bis[2-chloro-4-(2-pyridylimino)aminophenyl]furan [DB 712] | 3.39 µg/mL | about less than or equal to DB 702 and 1DWB667 | 15.33 ± 2.7%
5 | 2,5-Bis[2-methyl-4-(5-methyl-2-pyridylimino)aminophenyl]furan [DB 710] | 3.64 µg/mL | about less than or equal to DB 702 and 1DWB667 | 
